Active and inactive are the calls of the source. How the calls were made is not given here.
Legend:
Assay in all cases: cell viability loss in various cell types – MTT absorbance, EuMyc, HS578, 70Z/3, T47D, SKBR, late-stage follow-up (AID 504928)
Conditions in all cases: tumor cell line panel viability, at 10 µM, hits give low values
MD-MDA-231 Cell Line = system: MD-MDA-231 Cell Line
HS578 Cell Line = system: HS578 Cell Line
9E10 Cell Line = system: 9E10 Cell Line
T47D Cell Line = system: T47D Cell Line
SKBR Cell Line = system: SKBR Cell Line
MCF7 Cell Line = system: MCF7 Cell Line
Raji Cell Line = system: Raji Cell Line
EuMyc Lymphoma Cell Line = system: EuMyc Lymphoma Cell Line
70Z/3 Cell Line = system: 70Z/3 Cell Line
Jurkat Cell Line = system: Jurkat Cell Line

O=c1cc(N2CCN(c3cccc(Cl)c3)CC2)[nH]c(=O)n1C1CCCCC1
viability fold change (MD-MDA-231 Cell Line): 0.11 | viability fold change (HS578 Cell Line): 0.16 | viability fold change (9E10 Cell Line): 0.8 (inactive) | viability fold change (T47D Cell Line): 0.19 | viability fold change (SKBR Cell Line): 0.19 | viability fold change (MCF7 Cell Line): 0.17 | viability fold change (Raji Cell Line): 0.19 | viability fold change (EuMyc Lymphoma Cell Line): 0.63 (inactive) | viability fold change (70Z/3 Cell Line): 0.5 | viability fold change (Jurkat Cell Line): 0.19
